According to US10111900B2, “β-glucan methods and compositions that affect the tumor microenvironment” (Biothera, Inc., priority 2014, dated 2018):
“Also recorded” adds a separate entry of the source.

Tests used:
Type in all cases: cell-based, human
[1] = test system: M2 macrophages cultured in TCM; test: Flow cytometry of markers on M2 macrophages cultured in tumor-conditioned medium (TCM)
Description: Phenotypic and functional evaluation of β-glucan-treated M2a and β-glucan-treated M2 macrophages in the presence of immunosuppressive cytokines was carried out. M2 or M2a macrophages were prepared as described above. On day 3, tumor-conditioned medium (TCM) was added M2 macrophage cultures to account for 70% of the volume of the culture and then evaluated for CD163 expression and functional activity on day 6. […] M2a macrophages were cultured in IL-4 as described above.
The β-glucan-treated M2a macrophages cultured in IL-4 and M2 macrophages cultured in TCM were first evaluated for CD163 and CD86 expression. CD163 and CD86 were evaluated by flow cytometry and median MFI was calculated for isotype control staining and surface antigen staining and the results are shown in Table 5.
Monocytes or M2 macrophages were prepared as described above. On day 3, TCM was added to account for 70% of the volume of the culture and then evaluated for PD-L1 expression with TCM and then again when co-cultured with CD4 T cells.

Monocytes = test: Binding of β-glucan to monocytes in whole blood (serum cross-over); details: low binder's whole blood with high binder's serum (higher ABA)
Description: To test this, M2 macrophages were prepared as described above with a few modifications. The whole blood of a low binder was spun down to remove the plasma and then the cells were reconstituted with serum obtained from a high binder. The reconstituted blood was treated with vehicle or β-glucan (25 μg/mL) for 2 hours at 37° C. The monocytes were evaluated for binding by using anti-β-glucan specific monoclonal antibody and subsequent flow cytometry.

CD4 and CD8 T cells = test: Allogeneic mixed lymphocyte reaction with mMoDC; details: β-glucan-treated mMoDC from high binders
M1 macrophages = test: Flow cytometry of M1/M2 markers on M1 macrophages derived from β-glucan-treated whole blood
Description: CD14^+ monocytes from human whole blood were enriched using Ficoll gradient and magnetic bead separation. […] T cell proliferation was measured at the end of the experiment (day 9-day 11) by flow cytometry, and results are graphically shown as CFSE-dilution peaks. […] Quantitative results were reported as the Division Index (the average number of cell divisions a population underwent) calculated for each of the triplicate wells in each of the culture conditions. […]
Expression of a panel of markers was evaluated by flow cytometry for vehicle- and β-glucan-treated, high binder-derived M1 and M2 macrophages (CD163 was evaluated twice).
CD163 and CD86 were evaluated by flow cytometry for vehicle- and β-glucan-treated, low binder-derived M1 and M2 macrophages.

IL-4 = IL-4 in supernatants of macrophage and CD4 T cell co-cultures; details: M2 macrophage and CD4 T cell co-cultures
Description: CD14^+ monocytes from human whole blood were enriched using Ficoll gradient and magnetic bead separation. Enriched monocytes (5×10^5 cells per mL) were then cultured in either M1-polarizing (XVivo 10 media (Lonza Group) supplemented with 5% autologous serum and 100 ng/mL recombinant human granulocyte macrophage colony-stimulating factor (rhGM-CSF) (R&D Systems) or M2-polarizing (XVivo 10 media supplemented with 10% autologous serum and 50 ng/mL recombinant human macrophage colony-stimulating factor (rhM-CSF) (R&D Systems) conditions for 6 days. In experiments performed to evaluate the effect of β-glucan, whole blood was first incubated with vehicle (sodium citrate buffer) or 25 μg/mL soluble β-glucan for 2 hours at 37° C. and then the monocytes were isolated and differentiated. Morphology was checked before macrophages were harvested for phenotypic analysis. […] T cell proliferation was measured at the end of the experiment (day 9-day 11) by flow cytometry, and results are graphically shown as CFSE-dilution peaks. […] Quantitative results were reported as the Division Index (the average number of cell divisions a population underwent) calculated for each of the triplicate wells in each of the culture conditions. […]
Modulation of IFN-γ and IL-4 production of vehicle- and β-glucan-treated M2 macrophages was then evaluated. […]

CD4 T cells = test: Mac-CD4 T cell proliferation assay (CFSE dilution)
IFN-γ = IFN-γ in supernatants of macrophage and CD4 T cell co-cultures (ELISA)
Description: CD14^+ monocytes from human whole blood were enriched using Ficoll gradient and magnetic bead separation. Enriched monocytes (5×10^5 cells per mL) were then cultured in either M1-polarizing (XVivo 10 media (Lonza Group) supplemented with 5% autologous serum and 100 ng/mL recombinant human granulocyte macrophage colony-stimulating factor (rhGM-CSF) (R&D Systems) or M2-polarizing (XVivo 10 media supplemented with 10% autologous serum and 50 ng/mL recombinant human macrophage colony-stimulating factor (rhM-CSF) (R&D Systems) conditions for 6 days. In experiments performed to evaluate the effect of β-glucan, whole blood was first incubated with vehicle (sodium citrate buffer) or 25 μg/mL soluble β-glucan for 2 hours at 37° C. and then the monocytes were isolated and differentiated. Morphology was checked before macrophages were harvested for phenotypic analysis. Culture medium of the day 6 macrophage culture (MCM) was collected, spun down to remove contaminated cell pellet and then frozen down for subsequent cytokine analysis by ELISA or used to setup a co-culture with CD3 & CD28-stimulated CD4 T cells (MCM-CD4 T) for evaluation of either surface markers or CD4 T cell proliferation. The macrophages were used to setup a co-culture with CD3 & CD28- or CD3 only-stimulated CD4 T cells (Mac-CD4 T) on day 6 for evaluation of either surface marker modulation or effect on CD4 T cell proliferation. For Mac-CD4 T cell proliferation study, M1 or M2 macrophages were cultured with CD3 & CD28- or CD3 only-stimulated, CFSE-labeled, autologous CD4 T cells at a 1:10 ratio. T cell proliferation was measured at the end of the experiment (day 9-day 11) by flow cytometry, and results are graphically shown as CFSE-dilution peaks. The assessment of CD3-only stimulated T cells was always done on day 11. Quantitative results were reported as the Division Index (the average number of cell divisions a population underwent) calculated for each of the triplicate wells in each of the culture conditions. Culture supernatants of Mac-CD4 T cell co-cultures were collected for subsequent cytokine analysis.
The culture supernatants from the CFSE dilution T-cell proliferation assay (FIG. 2B) were also measured for IFN-gamma levels by ELISA. […] Thus, β-glucan affects M2 to M1 repolarization and drives anti-tumorigenic Th1 polarization.
M2 macrophages from 4 high binders and 4 low binders were prepared and evaluated for their ability to modulate CD4 T cell proliferation. The supernatants from the various CD4 T cell proliferation conditions were measured for IFN-γ by ELISA. Results shown in FIG. 10 are representative from 4 different experiments. Fold change over the IFN-γ levels produced in the co-cultures of vehicle-treated M2 macrophages and CD4 T cells are plotted for each of the 4 donors.

β(1,6)-[poly-(1,3)-D-glucopyranosyl]-poly-β(1,3)-D-glucopyranose [β-glucan]
surface expression of PD-L1 ([1]; M2 macrophages cultured in the TCM): higher surface expression | HLA-DR expression ([1]; M2 macrophages in TCM (data not shown)): higher HLA-DR expression | expression of PD-L1 ([1]; M2 macrophages in TCM co-cultured with CD4 T cells): increased expression | CD163 expression ([1]; β-glucan-treated monocytes cultured in TCM): marked down-regulation | binding of β-glucan to monocytes (Monocytes): significantly higher binding | immunogenicity in allo-MLR (CD4 and CD8 T cell expansion) (CD4 and CD8 T cells; over low binders): increased immunogenicity | IFN-γ production (CD4 and CD8 T cells; over low binders and vehicle): able to modulate IFN-γ production | CD163 (2) median MFI (M1 macrophages; M1 macrophages, high binder): 230 | M1 macrophage phenotype (M1/M2-specific markers) (M1 macrophages; β-glucan pretreatment vs vehicle): did not affect | production of IL-4 (IL-4): no change | CD4 T cell proliferation (CD4 T cells; M1 macrophages, high binders or low binders, vs vehicle): no differences | CD4 T cell proliferation (CD4 T cells; M2 macrophages cultured in TCM and M2a macrophages cultured in IL-4, vs vehicle): maintained the ability to enhance | CD4 T cell proliferation (CD4 T cells; M2 macrophages, absence of exogenous CD28 antibody (CD3 only)): significantly higher ability to enhance | CD4 T cell proliferation (CD4 T cells; M2 macrophages, high binders, CD3 & CD28-stimulated, vs vehicle): significantly higher ability to enhance | CD4 T cell proliferation (CD4 T cells; M2 macrophages, low binders, vs vehicle): neither enhanced CD4 T cell proliferation; also recorded: no enhanced proliferation | CD4 T cell proliferation (CD4 T cells; co-culture with β-glucan-treated M2 macrophages, CD3 and CD28-stimulated): enhance CD4 T cell proliferation | production of IFN-γ (IFN-γ; M2 in TCM / M2a in IL-4 co-cultured with CD4 T cells): significantly increased production | production of IFN-γ (IFN-γ; M2 macrophage and CD4 T cell co-cultures, high binders): significantly increased production | production of IFN-γ (IFN-γ; M2 macrophages and CD4 T cells, cell-to-cell contact study): significantly increased production | production of IFN-γ (IFN-γ; low binder crossed-over with high binder's serum): significantly increased production | IFN-gamma production (IFN-γ; supernatants of M2 macrophage and CD4 T cell co-culture): concomitant increase
